From patent US20060100146A1, “AWAT-related methods and articles” (priority 2004, published 2006) come the findings set out here.

Structures are written as SMILES.

One experiment deals with T1, human AWAT2 (hDC4) (Homo sapiens, UniProt Q6E213).
T1 construct: The full-length hDC4 was then sub cloned into the EcoRI site of the pRS423-GP vector; made in house; host or cells: Saccharomyces cerevisiae SCY2056 (dga1Δ lro1Δ are2), galactose-inducible pRS423-GP vector; microsomes used
T1 sequence (Q6E213 1-333): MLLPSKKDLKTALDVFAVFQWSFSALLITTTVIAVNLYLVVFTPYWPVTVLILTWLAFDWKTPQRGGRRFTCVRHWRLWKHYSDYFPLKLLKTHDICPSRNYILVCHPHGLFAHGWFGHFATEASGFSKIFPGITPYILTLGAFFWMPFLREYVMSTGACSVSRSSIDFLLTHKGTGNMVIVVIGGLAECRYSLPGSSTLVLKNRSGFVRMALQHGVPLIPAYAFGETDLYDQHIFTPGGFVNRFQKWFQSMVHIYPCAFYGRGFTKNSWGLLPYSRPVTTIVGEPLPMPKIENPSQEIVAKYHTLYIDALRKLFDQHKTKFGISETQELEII
Description: In vitro AWAT substrate specificity assay, AWAT2 microsomes. It counts as biochemical. To be noted: for Activity of AWAT2 (hDC4) towards various wax alcohols / Activity of AWAT2 (hDC4) towards various acyl-CoAs: 10 μg microsomes, wax ester formed, vector control removed, mean +/- Std. dev., triplicate; for Activity of AWAT2 (hDC4) towards various wax alcohols: [14C]oleoyl-CoA as acyl donor; for Activity of AWAT2 (hDC4) towards various acyl-CoAs: [14C]cetyl alcohol as acyl acceptor. As to the method:
(§1) Acyl-CoA wax alcohol acyltransferase (AWAT) assays were performed as above with the following exceptions: 200 μM cetyl alcohol (unlabeled or [^14C]-labeled 10,000 dpm/nmol) was substituted for DAG, oleoyloleate was used as carrier, and reactions were incubated for 20 min in a final volume of 250 μl. After separation by TLC, the spot corresponding to wax ester was cut out and counted. For alcohol and acyl-CoA substrate specificity studies, microsomal preparations from DGA2 (20 μg) and hDC4 (10 μg) were used. Kill reactions and vector controls were included for all experiments. The various wax alcohols and acyl-Co A's were substituted for cetyl alcohol or oleoyl Co A at the concentrations specified above. Activity is presented as pmol/min/mg protein.
(§2) In vitro AWAT assays were performed using microsomal preparations from TG null yeast strains transformed with human AWAT1 (DGA2), AWAT2 (hDC4) or a vector control harboring no insert. AWAT1 (20 μg) and AWAT2 (10 μg) microsomes were assayed as described under Experimental Procedures. Activity is in pmol of wax ester formed per min/mg protein, expressed as a mean±Std. dev. from a representative experiment performed in triplicate. Vector control background has been removed. In vitro determination of alcohol and acyl-CoA substrate specificities were performed with [^14C]oleoyl-CoA and the indicated alcohols or [^14C]cetyl alcohol and the indicated acyl-CoA donors (Table 3A and 3B, respectively). Kill reactions were included for all experiments.

For the next experiment, the target named is T2, human AWAT1 (DGA2) (Homo sapiens, UniProt Q58HT5).
T2 construct: The full length DGA2 was sub cloned into the EcoRI and NotI sites of the pRS423-GP vector; made in house; host or cells: Saccharomyces cerevisiae SCY2056 (dga1Δ lro1Δ are2), galactose-inducible pRS423-GP vector; microsomes used
T2 sequence (Q58HT5 1-328): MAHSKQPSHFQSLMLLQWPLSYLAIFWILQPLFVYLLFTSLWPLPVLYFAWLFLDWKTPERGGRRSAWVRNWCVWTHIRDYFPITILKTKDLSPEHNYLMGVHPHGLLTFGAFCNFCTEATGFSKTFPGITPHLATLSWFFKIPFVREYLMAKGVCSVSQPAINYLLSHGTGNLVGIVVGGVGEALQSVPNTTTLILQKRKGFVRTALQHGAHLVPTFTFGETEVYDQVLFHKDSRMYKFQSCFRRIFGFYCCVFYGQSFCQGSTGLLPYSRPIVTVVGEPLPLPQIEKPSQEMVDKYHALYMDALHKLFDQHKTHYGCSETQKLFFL
Description: In vitro AWAT substrate specificity assay, AWAT1 microsomes. To be noted: for Activity of AWAT1 (DGA2) towards various wax alcohols / Activity of AWAT1 (DGA2) towards various acyl-CoAs: 20 μg microsomes, wax ester formed, vector control removed, mean +/- Std. dev., triplicate; for Activity of AWAT1 (DGA2) towards various wax alcohols: [14C]oleoyl-CoA as acyl donor; for Activity of AWAT1 (DGA2) towards various acyl-CoAs: [14C]cetyl alcohol as acyl acceptor. The experiment is classed as biochemical. As to the method: as §1, §2

Consider `CCCCCCCCCCCCCCCCCCCCO` [Arachidyl C-20, arachidyl alcohol], for which the “Activity of AWAT2 (hDC4) towards various wax alcohols” value on human AWAT2 (hDC4) is reported as 27 +/− 4 pmol/min/mg protein. Also, the “Activity of AWAT1 (DGA2) towards various wax alcohols” value on human AWAT1 (DGA2) is recorded as 22 +/− 4 pmol/min/mg protein. The “Utilization by AWAT1 relative to decyl alcohol” value on human AWAT1 (DGA2) (oleoyl CoA as acyl donor) is given as “about 5%”.

In the case of `CCCCCCCCCCCCCCCCO` [Cetyl (Palmityl) C-16, cetyl alcohol], at human AWAT2 (hDC4), the “Activity of AWAT2 (hDC4) towards various wax alcohols” value was 665 +/− 54 pmol/min/mg protein. On human AWAT1 (DGA2), the “Activity of AWAT1 (DGA2) towards various wax alcohols” value was 83 +/− 6 pmol/min/mg protein.

With `CCCCCCCCCCO` [Decyl C-10, decyl alcohol], the “Activity of AWAT2 (hDC4) towards various wax alcohols” value at human AWAT2 (hDC4) was −50 +/− 277 pmol/min/mg protein. The “AWAT2 activity using the alcohol (in words)” value at human AWAT2 (hDC4) (oleoyl CoA as acyl donor) is given as “no activity”. Moreover, the “Activity of AWAT1 (DGA2) towards various wax alcohols” value at human AWAT1 (DGA2) is recorded as 419 +/− 180 pmol/min/mg protein.

Take `CCCCCCCC/C=C\CCCCCCCC(=O)SCCNC(=O)CCNC(=O)[C@H](O)C(C)(C)COP(=O)(O)OP(=O)(O)OC[C@H]1O[C@@H](n2cnc3c(N)ncnc32)[C@H](O)[C@@H]1OP(=O)(O)O` [Oleoyl C-18:1, oleoyl CoA]: the “Activity of AWAT2 (hDC4) towards various acyl-CoAs” value on human AWAT2 (hDC4) was 1232 +/− 349 pmol/min/mg protein. For the same molecule, on human AWAT1 (DGA2), the “Activity of AWAT1 (DGA2) towards various acyl-CoAs” value is reported as 113 +/− 7 pmol/min/mg protein. Besides, on human AWAT1 (DGA2) (cetyl alcohol as acyl acceptor), the “Utilization by AWAT1 relative to stearoyl CoA (C18:0)” value is given as 20%.

Turning to `CCCCCCCC/C=C\CCCCCCCCO` [Oleyl C-18:1], the “Activity of AWAT2 (hDC4) towards various wax alcohols” value at human AWAT2 (hDC4) was 892 +/− 106 pmol/min/mg protein. The “Activity of AWAT1 (DGA2) towards various wax alcohols” value on human AWAT1 (DGA2) is 247 +/− 23 pmol/min/mg protein.

With `CCCCCC/C=C\CCCCCCCC(=O)SCCNC(=O)CCNC(=O)[C@H](O)C(C)(C)COP(=O)(O)OP(=O)(O)OC[C@H]1O[C@@H](n2cnc3c(N)ncnc32)[C@H](O)[C@@H]1OP(=O)(O)O` [Palmitoleoyl C-16:1, palmitoleoyl CoA], the “Activity of AWAT2 (hDC4) towards various acyl-CoAs” value at human AWAT2 (hDC4) is given as 1125 +/− 220 pmol/min/mg protein. Further, the “Activity of AWAT1 (DGA2) towards various acyl-CoAs” value at human AWAT1 (DGA2) was −20 +/− 25 pmol/min/mg protein. The “AWAT1 activity using the acyl-CoA (in words)” value at human AWAT1 (DGA2) (cetyl alcohol as acyl acceptor) is on record as “no activity”.

For `CCCCCC/C=C\CCCCCCCCO` [Palmitoleyl C-16:1], the “Activity of AWAT2 (hDC4) towards various wax alcohols” value at human AWAT2 (hDC4) was 582 +/− 117 pmol/min/mg protein. Further, the “Activity of AWAT1 (DGA2) towards various wax alcohols” value at human AWAT1 (DGA2) was 184 +/− 29 pmol/min/mg protein.

For the molecule `CCCCCCCCCCCCCCCC(=O)SCCNC(=O)CCNC(=O)[C@H](O)C(C)(C)COP(=O)(O)OP(=O)(O)OC[C@H]1O[C@@H](n2cnc3c(N)ncnc32)[C@H](O)[C@@H]1OP(=O)(O)O` [Palmitoyl C-16], the “Activity of AWAT2 (hDC4) towards various acyl-CoAs” value on human AWAT2 (hDC4) is 524 +/− 164 pmol/min/mg protein. In addition, at human AWAT1 (DGA2), the “Activity of AWAT1 (DGA2) towards various acyl-CoAs” value is given as 390 +/− 121 pmol/min/mg protein.

On to `CCCCCCCCCCCCCCCCCC(=O)SCCNC(=O)CCNC(=O)[C@H](O)C(C)(C)COP(=O)(O)OP(=O)(O)OC[C@H]1O[C@@H](n2cnc3c(N)ncnc32)[C@H](O)[C@@H]1OP(=O)(O)O` [Stearoyl C-18, stearoyl CoA], for which the “Activity of AWAT2 (hDC4) towards various acyl-CoAs” value at human AWAT2 (hDC4) is listed as 549 +/− 38 pmol/min/mg protein. Moreover, the “Activity of AWAT1 (DGA2) towards various acyl-CoAs” value on human AWAT1 (DGA2) is on record as 656 +/− 39 pmol/min/mg protein.

Consider `CCCCCCCCCCCCCCCCCCO` [Stearyl C-18], for which the “Activity of AWAT2 (hDC4) towards various wax alcohols” value at human AWAT2 (hDC4) is given as 138 +/− 24 pmol/min/mg protein. Besides, on human AWAT1 (DGA2), the “Activity of AWAT1 (DGA2) towards various wax alcohols” value is recorded as 27 +/− 5 pmol/min/mg protein.
